This is an account of results in patent US20100119599A1 (ARCHER PHARMACEUTICALS, INC., priority 2006, published 2010).

One assay relates to Aβ1-40. The experiment in a line: Measurement of Aβ1-40 in culture medium of 7W WT APP751 CHO cells by ELISA. In kind it is cell-based, Chinese hamster. The settings on record: for activity at 5 µM: Cricetulus griseus, Table 1, 5 μM test compound, CHO cells stably transfected with human APP751, culture medium, ELISA, control DMSO, 0 = no detectable amount; for Aβ1-40 (% of control): CHO cells that overexpress APP751, zero = below the detection limit of the assay. For orientation: In an ELISA, binding on a coated surface is turned into a signal by an enzyme label.

A further assay concerns Aβ1-42. The experiment in a line: Measurement of Aβ1-42 in culture medium of 7W WT APP751 CHO cells by ELISA. In kind it is cell-based, Chinese hamster. The settings on record: for activity at 5 µM: Cricetulus griseus, Table 1, 5 μM test compound, CHO cells stably transfected with human APP751, culture medium, ELISA, control DMSO, 0 = no detectable amount, read-out: Aβ1-42 (% of control); for Aβ1-42 (% of control): CHO cells that overexpress APP751, zero = below the detection limit of the assay.
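Further: 5 µM test compound but RI-coded compounds at 10 µM for 24 hours.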

Consider `CC1=C(C(=O)OCCOc2ccccc2)C(c2ccccc2Br)C2=C(CCCC2=O)N1` (centres unmarked) [ST052219, 2-phenoxyethyl 4-(2-bromophenyl)-2-methyl-5-oxo-1,4,6,7,8-pentahydroquinoline-3-carboxylate], for which the results for the activity at 5 µM in the assay with Aβ1-40 and in the assay with Aβ1-42 were 14% and 24.7%, respectively.

Consider `COc1ccc(C2C(C(=O)OC3CCCCC3)=C(C)NC3=C2C(=O)CCC3)cc1Br` (centres unmarked) [ST013429, cyclohexyl 4-(3-bromo-4-methoxyphenyl)-2-methyl-5-oxo-1,4,6,7,8-pentahydroquinoline-3-carboxylate], for which the values for the activity at 5 µM in the assay with Aβ1-40 and in the assay on Aβ1-42 were 31.9% and 45.4%, respectively.

In the case of `CCCOc1ccc(C2C(C(=O)OC(C)CC)=C(C)NC3=C2C(=O)CC(c2ccc(Cl)cc2)C3)cc1` (centres unmarked) [ST017093, methylpropyl 7-(4-chlorophenyl)-2-methyl-5-oxo-4-(4-propoxyphenyl)-1,4,6,7,8-pentahydroquinoline-3-carboxylate], the activity at 5 µM in the assay on Aβ1-40 is 46.8%; with Aβ1-42 it was 95%.

As for `CC1=C(C(=O)Nc2ccccc2)C(c2cccs2)C(C#N)=C(SCC(=O)N2CCCCCCCCCCC2)N1` (centres unmarked) [RI_32], in the assay on Aβ1-40, the “Aβ1-40 (% of control)” value is recorded as 62.9 % of control. The “Aβ1-42 (% of control)” value in the assay on Aβ1-42 was 62.8 % of control.

Turning to `COC(=O)C1=C(C)NC2=C(C(=O)CC(C)(C)C2)C1c1cccnc1` (centres unmarked) [ST013059, methyl 2,7,7-trimethyl-5-oxo-4-(3-pyridyl)-1,4,6,7,8-pentahydroquinoline-3-carboxylate], the results for the activity at 5 µM with Aβ1-40 and with Aβ1-42 were 26.7% and 76.1%, respectively.

Turning to `CC1=C(C(=O)Nc2ccccc2)C(c2ccsc2)C(C#N)=C(SCC(=O)N2CCCCCCCCCCC2)N1` (centres unmarked) [RI_33], the “Aβ1-40 (% of control)” value in the assay with Aβ1-40 is 11.9 % of control. The “Aβ1-42 (% of control)” value in the assay with Aβ1-42 is reported as 13.7 % of control.

Consider `CCc1cccc(NC(=O)CSC2=C(C#N)C(c3cc4ccccc4s3)C(C(=O)Nc3ccccc3)=C(C)N2)c1` (centres unmarked) [RI_87], for which the “Aβ1-40 (% of control)” value in the assay with Aβ1-40 is listed as 77.1 % of control. In addition, the “Aβ1-42 (% of control)” value in the assay with Aβ1-42 is reported as 49 % of control.

As to `CCOC(=O)C1=C(C)NC2=C(C(=O)CC(C)(C)C2)C1c1cc2c(cc1[NH+]([O-])O)OCO2` (centres unmarked) [ST013060, ethyl 2,7,7-trimethyl-4-(6-nitro(2H-benzo[d]1,3-dioxolan-5-yl))-5-oxo-1,4,6,7,8-pentahydroquinoline-3-carboxylate], the activity at 5 µM with Aβ1-40 amounted to 32.7%; with Aβ1-42 it was 99.4%.

For the compound `CC1=C(C(=O)Nc2ccc(Cl)cc2)C(c2cccs2)C(C#N)=C(SCC(=O)Nc2ccc(C)c(Cl)c2)N1` (centres unmarked) [RI_60], in the assay with Aβ1-40, the “Aβ1-40 (% of control)” value was 59.4 % of control. Further, the “Aβ1-42 (% of control)” value in the assay with Aβ1-42 is given as 71.1 % of control.

As for `CC1=C(C(=O)Nc2ccccc2C)C(c2ccco2)C(C#N)=C(SCC(=O)Nc2cccc(Cl)c2C)N1` (centres unmarked) [ST051156, N-(3-chloro-2-methylphenyl)-2-{3-cyano-4-(2-furyl)-6-methyl-5-[N-(2-methylphenyl)carbamoyl](2-1,4-dihydropyridylthio)}acetamide], the “Aβ1-40 (% of control)” value in the assay with Aβ1-40 is reported as 86.64 % of control. In the assay with Aβ1-42, the “Aβ1-42 (% of control)” value was 68.02 % of control.

`N#CC1=C(N)n2c(s/c(=C/c3ccc(Cl)cc3Cl)c2=O)=C(C#N)C1c1ccc(Cl)cc1Cl` (centres unmarked) [ST003360, 5-amino-7-(2,4-dichlorophenyl)-2-[(2,4-dichlorophenyl)methylene]-3-oxo-4,7-dihydro-1,3-thiazolidino[3,2-a]pyridine-6,8-dicarbonitrile]: in the assay with Aβ1-40, the “Aβ1-40 (% of control)” value is recorded as 63.37 % of control. In the assay on Aβ1-42, the “Aβ1-42 (% of control)” value was 72.55 % of control.

As to `CCOC(=O)C1=C(C)NC2=C(C(=O)CCC2)C1c1ccc(C(=O)OC)cc1` (centres unmarked) [ST013173, methyl 4-[3-(ethoxycarbonyl)-2-methyl-5-oxo-4-1,4,6,7,8-pentahydroquinolyl]benzoate], the activity at 5 µM was found to be 39.2% with Aβ1-40 and 78.1% in the assay with Aβ1-42.

With `CCOC(=O)C1=C(C)NC2=C(C(=O)CCC2)C1c1cccnc1` (centres unmarked) [ST013070, ethyl 2-methyl-5-oxo-4-(3-pyridyl)-1,4,6,7,8-pentahydroquinoline-3-carboxylate], the figures for the activity at 5 µM with Aβ1-40 and in the assay with Aβ1-42 were 34% and 82.4%, respectively.

For the compound `COCCOC(=O)C1=C(C)NC2=C(C(=O)CC(c3ccc(OC)cc3)C2)C1c1ccc2c(c1)OCO2` (centres unmarked) [ST017094, 2-methoxyethyl 4-(2H-benzo[3,4-d]1,3-dioxolen-5-yl)-7-(4-methoxyphenyl)-2-methyl-5-oxo-1,4,6,7,8-pentahydroquinoline-3-carboxylate], the results for the activity at 5 µM with Aβ1-40 and in the assay on Aβ1-42 were 68.9% and 73.8%, respectively.

Consider `COC(=O)C1=C(C)NC2=C(C(=O)CC(C)(C)C2)C1c1ccc(OCc2cccc(Cl)c2)c(OC)c1` (centres unmarked) [ST028592, methyl 4-{4-[(3-chlorophenyl)methoxy]-3-methoxyphenyl}-2,7,7-trimethyl-5-oxo-1,4,6,7,8-pentahydroquinoline-3-carboxylate], for which the results for the activity at 5 µM with Aβ1-40 and with Aβ1-42 were 28.3% and 97.1%, respectively.

`CCCCOC(=O)C1=C(C)NC2=C(C(=O)CC(C)(C)C2)C1c1cccc(Cl)c1Cl` (centres unmarked) [ST013239, butyl 4-(2,3-dichlorophenyl)-2,7,7-trimethyl-5-oxo-1,4,6,7,8-pentahydroquinoline-3-carboxylate]: the activity at 5 µM in the assay with Aβ1-40 worked out at 0%; with Aβ1-42, 59.5%.

Consider `COC(=O)C1=C(C)NC(SCC(=O)c2cccs2)=C(C#N)C1c1ccc2c(c1)OCCO2` (centres unmarked) [ST014052, methyl 4-(2H,3H-benzo[3,4-e]1,4-dioxan-6-yl)-5-cyano-2-methyl-6-(2-oxo-2-(2-thienyl)ethylthio)-1,4-dihydropyridine-3-carboxylate], for which the “Aβ1-40 (% of control)” value in the assay with Aβ1-40 is recorded as 49 % of control. In the assay with Aβ1-42, the “Aβ1-42 (% of control)” value is listed as 74.69 % of control.

Turning to `CCN(CC)c1ccc(C2C(C(=O)OC(C)C)=C(C)NC3=C2C(=O)CC(c2ccccc2)C3)cc1` (centres unmarked) [ST014875, methylethyl 4-[4-(diethylamino)phenyl]-2-methyl-5-oxo-7-phenyl-1,4,6,7,8-pentahydroquinoline-3-carboxylate], the activity at 5 µM with Aβ1-40 is 54.2%; with Aβ1-42 it was 95.7%.

On to `COC(=O)C1=C(C)NC2=C(C(=O)CC(c3ccc(Cl)cc3)C2)C1c1ccc(C)cc1` (centres unmarked) [ST015214, methyl 7-(4-chlorophenyl)-2-methyl-4-(4-methylphenyl)-5-oxo-1,4,6,7,8-pentahydroquinoline-3-carboxylate], for which the figures for the activity at 5 µM in the assay on Aβ1-40 and with Aβ1-42 were 60.7% and 66.7%, respectively.

`CCOc1cc(C2C(C(=O)OCc3ccccc3)=C(C)NC3=C2C(=O)CCC3)ccc1O` (centres unmarked) [ST013242, phenylmethyl 4-(3-ethoxy-4-hydroxyphenyl)-2-methyl-5-oxo-1,4,6,7,8-pentahydroquinoline-3-carboxylate]: the values for the activity at 5 µM with Aβ1-40 and with Aβ1-42 were 81.2% and 64.4%, respectively.

Regarding `COc1ccc(C2C(C#N)=C(N)N(c3ccccc3Cl)C3=C2C(=O)CCC3)cc1O` (centres unmarked) [ST051958, 2-amino-1-(2-chlorophenyl)-4-(3-hydroxy-4-methoxyphenyl)-5-oxo-1,4,6,7,8-pentahydroquinoline-3-carbonitrile], the activity at 5 µM in the assay with Aβ1-40 is 56.6%; in the assay with Aβ1-42, 80.2%.

`CC1=C(C(=O)Nc2ccccc2)C(c2cccs2)C(C#N)=C(S)N1` (centres unmarked) [RI_28]: the “Aβ1-40 (% of control)” value in the assay on Aβ1-40 is 77.1 % of control. In addition, the “Aβ1-42 (% of control)” value in the assay on Aβ1-42 is reported as 68.5 % of control.
